Reference: PubChem BioAssay AID248 (DTP/NCI, 2004)
Several values for one entry are separate records, joined by “and”; a condition that tells them apart may be missing. Equal entries are not always repeated. Inconclusive results and toxic doses are left out. Rule as the data show it: active = T/C of 150% or more; inactive = T/C below 125%.

System: L1210 leukemia ip in BDF1 mice, survival T/C
Experiment: NCI In Vivo Anticancer Drug Screen. Data for tumor model L1210 Leukemia (intraperitoneal) in B6D2F1 (BDF1) mice
Conditions: endpoint: mean survival time, higher = longer survival
Summary of the method: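 Transplantable tumor model; survival measured in treated vs vehicle control mice. Value = treated/control.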

[1] = dose: 100.0 mg/kg/injection, schedule: Q01DX009 (ip), vehicle: Klucel (hydroxypropylcellulose) (HPC)
[2] = dose: 100.0 mg/kg/injection, schedule: Q04DX003 (ip), vehicle: Klucel (hydroxypropylcellulose) (HPC)
[3] = dose: 200.0 mg/kg/injection, schedule: Q01DX009 (ip), vehicle: Klucel (hydroxypropylcellulose) (HPC)
[4] = dose: 200.0 mg/kg/injection, schedule: Q04DX003 (ip), vehicle: Klucel (hydroxypropylcellulose) (HPC)
[5] = dose: 400.0 mg/kg/injection, schedule: Q01DX009 (ip), vehicle: Klucel (hydroxypropylcellulose) (HPC)
[6] = dose: 400.0 mg/kg/injection, schedule: Q04DX003 (ip), vehicle: Klucel (hydroxypropylcellulose) (HPC)
[7] = dose: 100.0 mg/kg/injection, schedule: Q04DX002 (ip), vehicle: saline
[8] = dose: 100.0 mg/kg/injection, schedule: Q04DX003 (ip), vehicle: saline with Tween-80
[9] = dose: 200.0 mg/kg/injection, schedule: Q04DX003 (ip), vehicle: saline with Tween-80
[10] = dose: 400.0 mg/kg/injection, schedule: Q04DX003 (ip), vehicle: saline with Tween-80
[11] = dose: 50.0 mg/kg/injection, schedule: Q01DX009 (ip), vehicle: saline with Tween-80
[12] = dose: 100.0 mg/kg/injection, schedule: Q01DX009 (ip), vehicle: saline with Tween-80
[13] = dose: 200.0 mg/kg/injection, schedule: Q01DX009 (ip), vehicle: saline with Tween-80
[14] = dose: 100.0 mg/kg/injection, schedule: Q04DX002 (ip), vehicle: saline with Tween-80
[15] = dose: 200.0 mg/kg/injection, schedule: Q04DX002 (ip), vehicle: saline with Tween-80
[16] = dose: 400.0 mg/kg/injection, schedule: Q04DX002 (ip), vehicle: saline with Tween-80
[17] = dose: 100.0 mg/kg/injection, schedule: Q01DX001 (ip), vehicle: carboxymethylcellulose (CMC)
[18] = dose: 200.0 mg/kg/injection, schedule: Q01DX001 (ip), vehicle: carboxymethylcellulose (CMC)
[19] = dose: 400.0 mg/kg/injection, schedule: Q01DX001 (ip), vehicle: carboxymethylcellulose (CMC)

Measured: T/C

COc1cccc(/C(=C/c2ccc([N+](=O)[O-])cc2)C(=O)O)c1
inactive: dose: 100.0 mg/kg/injection, schedule: Q01DX001 (ip), vehicle: Klucel (hydroxypropylcellulose) (HPC) 100 % of control | [1] 97 % of control and 100 % of control | [2] 100 % of control | dose: 200.0 mg/kg/injection, schedule: Q01DX001 (ip), vehicle: Klucel (hydroxypropylcellulose) (HPC) 109 % of control | [3] 96 % of control and 87 % of control | [4] 105 % of control | dose: 400.0 mg/kg/injection, schedule: Q01DX001 (ip), vehicle: Klucel (hydroxypropylcellulose) (HPC) 97 % of control | [5] 100 % of control and 91 % of control | [6] 105 % of control

O=C(/C=C/c1ccccc1)N/N=C/c1ccncc1
inactive: [7] 91 % of control | dose: 200.0 mg/kg/injection, schedule: Q04DX002 (ip), vehicle: saline 108 % of control | dose: 400.0 mg/kg/injection, schedule: Q04DX002 (ip), vehicle: saline 112 % of control

O=C(c1ccccc1)N1CC1
inactive: dose: 25.0 mg/kg/injection, schedule: Q01DX009 (ip), vehicle: water 95 % of control | dose: 50.0 mg/kg/injection, schedule: Q01DX009 (ip), vehicle: water 93 % of control | dose: 100.0 mg/kg/injection, schedule: Q01DX009 (ip), vehicle: water 86 % of control | dose: 200.0 mg/kg/injection, schedule: Q01DX009 (ip), vehicle: water 88 % of control | dose: 400.0 mg/kg/injection, schedule: Q01DX009 (ip), vehicle: water 90 % of control

NC(C(=O)O)c1ccccc1 (stereo unspecified)
inactive: dose: 12.5 mg/kg/injection, schedule: Q04DX002 (ip), vehicle: Klucel (hydroxypropylcellulose) (HPC) 96 % of control | dose: 25.0 mg/kg/injection, schedule: Q04DX002 (ip), vehicle: Klucel (hydroxypropylcellulose) (HPC) 104 % of control | dose: 50.0 mg/kg/injection, schedule: Q04DX002 (ip), vehicle: Klucel (hydroxypropylcellulose) (HPC) 96 % of control

NC(=Nc1ccc([N+](=O)[O-])cc1)c1ccccc1
inactive: [8] 98 % of control | [9] 102 % of control | [10] 100 % of control

CC1CC=C(/C=N\NC(=O)c2ccc[n+](C)c2)C(C)O1 (stereo unspecified)
inactive: [11] 96 % of control | [12] 96 % of control | [13] 93 % of control

[O-][n+]1c(CN2CCCCC2)nc2cccc3c2c1-c1ccccc1-3
inactive: [12] 97 % of control | [8] 101 % of control | [13] 100 % of control | [9] 101 % of control | dose: 400.0 mg/kg/injection, schedule: Q01DX009 (ip), vehicle: saline with Tween-80 107 % of control | [10] 100 % of control

Cc1cn[nH]c1-c1ccccc1O
inactive: [14] 96 % of control | [15] 100 % of control | [16] 100 % of control

CC(C)=CCC/C(C)=C/CN
inactive: dose: 25.0 mg/kg/injection, schedule: Q04DX003 (ip), vehicle: saline 101 % of control | dose: 50.0 mg/kg/injection, schedule: Q04DX003 (ip), vehicle: saline 92 % of control | dose: 100.0 mg/kg/injection, schedule: Q01DX009 (ip), vehicle: saline 95 % of control | dose: 100.0 mg/kg/injection, schedule: Q04DX003 (ip), vehicle: saline 97 % of control

N#CC(Nc1c(N)nc(N)nc1N)c1ccc(N(CCCl)CCCl)cc1 (stereo unspecified)
inactive: dose: 50.0 mg/kg/injection, schedule: Q01DX001 (ip), vehicle: carboxymethylcellulose (CMC) 105 % of control | [17] 103 % of control | [18] 103 % of control | [19] 100 % of control

CCCCNC(=O)Nc1cccc2ccccc12
inactive: [1] 96 % of control | [3] 96 % of control | [5] 97 % of control

CCCCCCCCCCCCCCCCn1cnc2ncnc(Cl)c21
inactive: dose: 12.5 mg/kg/injection, schedule: Q01DX005 (ip), vehicle: other 100 % of control | dose: 25.0 mg/kg/injection, schedule: Q01DX005 (ip), vehicle: other 102 % of control | dose: 50.0 mg/kg/injection, schedule: Q01DX005 (ip), vehicle: other 98 % of control | dose: 100.0 mg/kg/injection, schedule: Q01DX005 (ip), vehicle: other 105 % of control | dose: 200.0 mg/kg/injection, schedule: Q01DX005 (ip), vehicle: other 100 % of control

CCOC(=O)/C=C/c1ccco1
inactive: [11] 93 % of control | [12] 96 % of control | [8] 103 % of control | [13] 93 % of control | [9] 95 % of control

N=C(N=Nc1c(O)[nH]c2ccccc12)N[N+](=O)[O-]
inactive: dose: 6.25 mg/kg/injection, schedule: Q01DX009 (ip), vehicle: Klucel (hydroxypropylcellulose) (HPC) 95 % of control | dose: 12.5 mg/kg/injection, schedule: Q01DX009 (ip), vehicle: Klucel (hydroxypropylcellulose) (HPC) 101 % of control | dose: 12.5 mg/kg/injection, schedule: Q04DX003 (ip), vehicle: Klucel (hydroxypropylcellulose) (HPC) 100 % of control | dose: 25.0 mg/kg/injection, schedule: Q01DX009 (ip), vehicle: Klucel (hydroxypropylcellulose) (HPC) 91 % of control | dose: 25.0 mg/kg/injection, schedule: Q04DX003 (ip), vehicle: Klucel (hydroxypropylcellulose) (HPC) 102 % of control

O=[N+]([O-])c1ccc(I)c(F)c1
inactive: [2] 100 % of control | [4] 100 % of control | [6] 104 % of control

CC(CS)CS
inactive: [17] 95 % of control | [18] 95 % of control | [19] 95 % of control

COc1ccc(CCNC(=O)NC(C)(C)C)cc1OC
inactive: [14] 97 % of control | [15] 94 % of control | [16] 97 % of control

Nc1ccccc1SCc1ccccc1
inactive: [8] 101 % of control | [9] 96 % of control | [10] 98 % of control

CCCCCC(=O)c1ccc(O)cc1O
inactive: dose: 12.5 mg/kg/injection, schedule: Q01DX009 (ip), vehicle: gum acacia 104 % of control | dose: 25.0 mg/kg/injection, schedule: Q01DX009 (ip), vehicle: gum acacia 109 % of control | dose: 50.0 mg/kg/injection, schedule: Q01DX009 (ip), vehicle: gum acacia 93 % of control and 95 % of control | dose: 100.0 mg/kg/injection, schedule: Q04DX003 (ip), vehicle: gum acacia 95 % of control | dose: 200.0 mg/kg/injection, schedule: Q04DX003 (ip), vehicle: gum acacia 94 % of control

O=N[O-].O=N[O-].O=N[O-].O=N[O-].O=N[O-].O=N[O-].[Ni]
inactive: dose: 25.0 mg/kg/injection, schedule: Q04DX002 (ip), vehicle: saline 106 % of control | dose: 50.0 mg/kg/injection, schedule: Q04DX002 (ip), vehicle: saline 113 % of control | [7] 106 % of control

COC(=O)CCC(C)C1CCC2C3CCC4CC(OC(=O)c5ccccc5)CCC4(C)C3CC(=O)C12C (stereo unspecified)
inactive: dose: 100.0 mg/kg/injection, schedule: Q01DX001 (sc), vehicle: steriod suspending solution 102 % of control | dose: 100.0 mg/kg/injection, schedule: Q01DX009 (sc), vehicle: steriod suspending solution 93 % of control | dose: 200.0 mg/kg/injection, schedule: Q01DX001 (sc), vehicle: steriod suspending solution 106 % of control | dose: 200.0 mg/kg/injection, schedule: Q01DX009 (sc), vehicle: steriod suspending solution 98 % of control | dose: 400.0 mg/kg/injection, schedule: Q01DX001 (sc), vehicle: steriod suspending solution 104 % of control | dose: 400.0 mg/kg/injection, schedule: Q01DX009 (sc), vehicle: steriod suspending solution 99 % of control

CC(N)C(=O)NCCCl (stereo unspecified)
inactive: dose: 10.0 mg/kg/injection, schedule: Q01DX Z (ip), vehicle: saline 91 % of control | dose: 30.0 mg/kg/injection, schedule: Q01DX Z (ip), vehicle: saline 104 % of control | dose: 100.0 mg/kg/injection, schedule: Q01DX Z (ip), vehicle: saline 91 % of control | dose: 300.0 mg/kg/injection, schedule: Q01DX Z (ip), vehicle: saline 93 % of control
